# System: ATF4 luciferase reporter
# Experiment: ATF4-Luc assay in HEK293T cells carrying the ATF4 luciferase reporter (in vitro model of VWMD)
# Assay type: cell-based, human
# Conditions: Homo sapiens, HEK-293T, 1 μg/mL tunicamycin, 7 hours, luminescence (One Glo)
# Procedure: In order to test exemplary compounds of the invention in a cellular context, a stable VWMD cell line was first constructed. The ATF4 reporter was prepared by fusing the human full-length ATF4 5′-UTR (NCBI Accession No. BC022088.2) in front of the firefly luciferase (FLuc) coding sequence lacking the initiator methionine as described in Sidrauski et al (eLife 2013). The construct was used to produce recombinant retroviruses using standard methods and the resulting viral supernatant was used to transduce HEK293T cells, which were then subsequently selected with puromycin to generate a stable cell line.
# HEK293T cells carrying the ATF4 luciferase reporter were plated on polylysine coated 384-well plates (Greiner Bio-one) at 30,000 cells per well. Cells were treated the next day with 1 μg/mL tunicamycin and 200 nM of a compound of Formula (I) for 7 hours. Luminescence was measured using One Glo (Promega) as specified by the manufacturer. Cells were maintained in DMEM with L-glutamine supplemented with 10% heat-inactivated FBS (Gibco) and Antibiotic-Antimycotic solution (Gibco).
# Table 2 below summarizes the EC50 data obtained using the ATF4-Luc assay for exemplary compounds of the invention.
smiles,measurement,value
"O=C(COc1ccc(Cl)c(F)c1)NC12CCC(C(=O)NCc3ccc(C(F)(F)F)cn3)(CC1)[C@H](O)C2 (single isomer, unassigned) [Compound 113]",EC50,< 250 nM
"O=C(COc1ccc(Cl)c(F)c1)NC12CCC(C(=O)NCc3ccc(C(F)(F)F)cn3)(CC1)[C@@H](O)C2 (single isomer, unassigned) [Compound 114]",EC50,< 250 nM
"O=C(COc1ccc(Cl)cc1)NC12CC(C(=O)NCCOc3ccc(Cl)cc3)(C1)C2 [Compound 100, 3-[2-(4-chlorophenoxy)acetamido]-N-[2-(4-chlorophenoxy)ethyl]bicyclo[1.1.1]-pentane-1-carboxamide]",EC50,< 250 nM
"Cc1cccc(OCCNC(=O)C23CC(NC(=O)COc4ccc(Cl)cc4)(C2)C3)c1 [Compound 101, 3-[2-(4-chlorophenoxy)acetamido]-N-[2-(3-methylphenoxy)ethyl]bicyclo[1.1.1]-pentane-1-carboxamide]",EC50,1000 to 2000 nM
"O=C(COc1ccc(Cl)cc1)NC12CC(C(=O)NCCOc3ccc(F)cc3)(C1)C2 [Compound 102, 3-[2-(4-chlorophenoxy)acetamido]-N-[2-(4-fluorophenoxy)ethyl]bicyclo[1.1.1]-pentane-1-carboxamide]",EC50,250 to 500 nM
"Cc1cc(OCCNC(=O)C23CC(NC(=O)COc4ccc(Cl)cc4)(C2)C3)ccc1Cl [Compound 103, N-[2-(4-chloro-3-methylphenoxy)ethyl]-3-[2-(4-chlorophenoxy)acetamido]-bicyclo[1.1.1]pentane-1-carboxamide]",EC50,250 to 500 nM
"O=C(COc1ccc(Cl)cc1)NC12CC(C(=O)NCCOc3cccc(F)c3)(C1)C2 [Compound 104, 3-[2-(4-chlorophenoxy)acetamido]-N-[2-(3-fluorophenoxy)ethyl]bicyclo-[1.1.1]pentane-1-carboxamide]",EC50,250 to 500 nM
"Cc1ccc(OCCNC(=O)C23CC(NC(=O)COc4ccc(Cl)cc4)(C2)C3)cc1 [Compound 105, 3-[2-(4-chlorophenoxy)acetamido]-N-[2-(4-methylphenoxy)ethyl]bicyclo-[1.1.1]pentane-1-carboxamide]",EC50,500 to 1000 nM
O=C(COc1ccc(Cl)c(F)c1)NC12CCC(C(=O)NCc3ccc(C(F)(F)F)cn3)(CC1)C(O)C2 (stereo not shown) [Compound 106],EC50,< 250 nM
"O=C(COc1ccc(Cl)c(F)c1)NC12CCC(C(=O)NCCOc3ccc(Cl)cc3)(CC1)C(O)C2 (stereo not shown) [Compound 107, 4-[2-(4-chloro-3-fluorophenoxy)acetamido]-N-[2-(4-chlorophenoxy)ethyl]-2-hydroxybicyclo[2.2.2]octane-1-carboxamide]",EC50,< 250 nM
"O=C(COc1ccc(Cl)c(F)c1)NC12CCC(C(=O)NCc3ccc(Cl)cn3)(CC1)C(O)C2 (stereo not shown) [Compound 108, 4-[2-(4-chloro-3-fluorophenoxy)acetamido]-N-[(5-chloropyridin-2-yl)methyl]-2-hydroxybicyclo[2.2.2]octane-1-carboxamide]",EC50,< 250 nM
"CC(C)c1cc(CNC(=O)C23CCC(NC(=O)COc4ccc(Cl)c(F)c4)(CC2)CC3O)on1 (stereo not shown) [Compound 109, 4-[2-(4-chloro-3-fluorophenoxy)acetamido]-2-hydroxy-N-{[3-(propan-2-yl)-1,2-oxazol-5-yl]methyl}bicyclo[2.2.2]octane-1-carboxamide]",EC50,500 to 1000 nM
"O=C(COc1ccc(Cl)c(F)c1)NC12CCC(C(=O)NCc3ccc(C(F)(F)F)cc3)(CC1)C(O)C2 (stereo not shown) [Compound 110, 4-[2-(4-chloro-3-fluorophenoxy)acetamido]-2-hydroxy-N-{[4-(trifluoromethyl)phenyl]methyl}bicyclo[2.2.2]octane-1-carboxamide]",EC50,< 250 nM
"Cc1cc(C)c(CNC(=O)C23CCC(NC(=O)COc4ccc(Cl)c(F)c4)(CC2)CC3O)cn1 (stereo not shown) [Compound 111, 4-[2-(4-chloro-3-fluorophenoxy)acetamido]-N-[(4,6-dimethylpyridin-3-yl)methyl]-2-hydroxybicyclo[2.2.2]octane-1-carboxamide]",EC50,> 2000 nM
"O=C(COc1ccc(Cl)c(F)c1)NC12CCC(C(=O)NCc3cncc(F)c3)(CC1)C(O)C2 (stereo not shown) [Compound 112, 4-[2-(4-chloro-3-fluorophenoxy)acetamido]-N-[(5-fluoropyridin-3-yl)methyl]-2-hydroxybicyclo[2.2.2]octane-1-carboxamide]",EC50,> 2000 nM
"O=C(COc1ccc(Cl)c(F)c1)NC12CCC(C(=O)NCc3cocn3)(CC1)C(O)C2 (stereo not shown) [Compound 115, 4-[2-(4-chloro-3-fluorophenoxy)acetamido]-2-hydroxy-N-[(1,3-oxazol-4-yl)methyl]bicyclo[2.2.2]octane-1-carboxamide]",EC50,> 2000 nM
"Cn1ccc(CNC(=O)C23CCC(NC(=O)COc4ccc(Cl)c(F)c4)(CC2)CC3O)n1 (stereo not shown) [Compound 116, 4-[2-(4-chloro-3-fluorophenoxy)acetamido]-2-hydroxy-N-[(1-methyl-1H-pyrazol-3-yl)methyl]bicyclo[2.2.2]octane-1-carboxamide]",EC50,> 2000 nM
"O=C(COc1ccc(Cl)c(F)c1)NC12CC(C(=O)NCc3ccc(Cl)cc3)(C1)C2 [Compound 117, 3-[2-(4-chloro-3-fluorophenoxy)acetamido]-N-[(4-chlorophenyl)methyl]bicyclo[1.1.1]pentane-1-carboxamide]",EC50,< 250 nM
"O=C(COc1ccc(Cl)c(F)c1)NC12CC(C(=O)NCc3ccc(C(F)(F)F)cn3)(C1)C2 [Compound 118, 3-[2-(4-chloro-3-fluorophenoxy)acetamido]-N-{[5-(trifluoromethyl)pyridin-2-yl]methyl}bicyclo[1.1.1]pentane-1-carboxamide]",EC50,< 250 nM
"Cc1cnc(CNC(=O)C23CCC(NC(=O)COc4ccc(Cl)c(F)c4)(CC2)CC3O)cn1 (stereo not shown) [Compound 119, 4-[2-(4-chloro-3-fluorophenoxy)acetamido]-2-hydroxy-N-[(5-methylpyrazin-2-yl)methyl]bicyclo[2.2.2]octane-1-carboxamide]",EC50,1000 to 2000 nM
"O=C(COc1ccc(Cl)c(F)c1)NC12CCC(C(=O)NCc3cc(C(F)(F)F)ccn3)(CC1)C(O)C2 (stereo not shown) [Compound 120, 4-[2-(4-chloro-3-fluorophenoxy)acetamido]-2-hydroxy-N-{[4-(trifluoromethyl)pyridin-2-yl]methyl}bicyclo[2.2.2]octane-1-carboxamide]",EC50,< 250 nM
"CS(=O)(=O)c1ccc(CNC(=O)C23CCC(NC(=O)COc4ccc(Cl)c(F)c4)(CC2)CC3O)nc1 (stereo not shown) [Compound 121, 4-[2-(4-chloro-3-fluorophenoxy)acetamido]-2-hydroxy-N-{[5-(methanesulfonyl)pyridin-2-yl]methyl}bicyclo[2.2.2]octane-1-carboxamide]",EC50,> 2000 nM
"O=C(COc1ccc(F)cc1)NC12CCC(C(=O)NCc3ccc(C(F)(F)F)cn3)(CC1)C(O)C2 (stereo not shown) [Compound 122, 4-[2-(4-fluorophenoxy)acetamido]-2-hydroxy-N-{[5-(trifluoromethyl)pyridin-2-yl]methyl}bicyclo[2.2.2]octane-1-carboxamide]",EC50,< 250 nM
"O=C(COc1ccc(F)cc1)NC12CCC(C(=O)NCc3ccc(C(F)(F)F)cc3)(CC1)C(O)C2 (stereo not shown) [Compound 123, 4-[2-(4-fluorophenoxy)acetamido]-2-hydroxy-N-{[4-(trifluoromethyl)phenyl]methyl}bicyclo[2.2.2]octane-1-carboxamide]",EC50,< 250 nM
"Cc1cccc(CNC(=O)C23CCC(NC(=O)COc4ccc(Cl)c(F)c4)(CC2)CC3O)c1 (stereo not shown) [Compound 124, 4-[2-(4-chloro-3-fluorophenoxy)acetamido]-2-hydroxy-N-[(3-methylphenyl)methyl]bicyclo[2.2.2]octane-1-carboxamide]",EC50,500 to 1000 nM
"Cc1ccc(CNC(=O)C23CCC(NC(=O)COc4ccc(Cl)c(F)c4)(CC2)CC3O)cc1 (stereo not shown) [Compound 125, 4-[2-(4-chloro-3-fluorophenoxy)acetamido]-2-hydroxy-N-[(4-methylphenyl)methyl]bicyclo[2.2.2]octane-1-carboxamide]",EC50,< 250 nM
"O=C(COc1ccc(Cl)c(F)c1)NC12CCC(C(=O)NCc3cc(F)cc(C(F)(F)F)c3)(CC1)C(O)C2 (stereo not shown) [Compound 126, 4-[2-(4-chloro-3-fluorophenoxy)acetamido]-N-{[3-fluoro-5-(trifluoromethyl)phenyl]methyl}-2-hydroxybicyclo[2.2.2]octane-1-carboxamide]",EC50,> 2000 nM
"COc1cccc(CNC(=O)C23CCC(NC(=O)COc4ccc(Cl)c(F)c4)(CC2)CC3O)c1 (stereo not shown) [Compound 127, 4-[2-(4-chloro-3-fluorophenoxy)acetamido]-2-hydroxy-N-[(3-methoxyphenyl)methyl]bicyclo[2.2.2]octane-1-carboxamide]",EC50,1000 to 2000 nM
"COc1ccc(CNC(=O)C23CCC(NC(=O)COc4ccc(Cl)c(F)c4)(CC2)CC3O)cc1 (stereo not shown) [Compound 128, 4-[2-(4-chloro-3-fluorophenoxy)acetamido]-2-hydroxy-N-[(4-methoxyphenyl)methyl]bicyclo[2.2.2]octane-1-carboxamide]",EC50,< 250 nM
"O=C(COc1ccc(Cl)c(F)c1)NC12CCC(C(=O)NCc3cccc(F)c3)(CC1)C(O)C2 (stereo not shown) [Compound 129, 4-[2-(4-chloro-3-fluorophenoxy)acetamido]-N-[(3-fluorophenyl)methyl]-2-hydroxybicyclo[2.2.2]octane-1-carboxamide]",EC50,250 to 500 nM
"O=C(COc1ccc(Cl)c(F)c1)NC12CCC(C(=O)NCc3ccc(F)cc3)(CC1)C(O)C2 (stereo not shown) [Compound 130, 4-[2-(4-chloro-3-fluorophenoxy)acetamido]-N-[(4-fluorophenyl)methyl]-2-hydroxybicyclo[2.2.2]octane-1-carboxamide]",EC50,< 250 nM
